Values quoted from earlier work as cited in paper PMC2574912 (Life sciences, 2008).

How the values were obtained:
[1] = tested on: non-AT1, non-AT2 binding site in rat brain; settings: sulfhydryl reducing agents, ref Karamyan and Speth, 2007
[2] = tested on: AT-1 angiotensin receptor; settings: presence of PCMB; ref Karamyan and Speth, 2007
AT2 receptor = settings: PCMB; ref Karamyan, Speth unpublished observations

SMILES | Effect on binding of 125I-Ang II to the non-AT1, non-AT2 binding site [1] | Effect on AT1 receptor binding [2] | Effect on AT2 receptor binding (AT2 receptor)
O[C@@H](CS)[C@@H](O)CS (racemic) [dithiothreitol] | inhibit the binding | – | –
OCCS [β-mercaptoethanol] | inhibit the binding | – | –
O=C(O)c1cc[c]([Hg][Cl])cc1 [PCMB, parachloromercuribenzoate] | – | inactivated | not inhibited
